Measured values reported in US12171813B2, “Methods of and compositions for reducing gene expression and/or activity” (Christiana Care Gene Editing Institute, Inc., priority 2021, dated 2024).

Legend:
NFE2L2 gene = assay: Screening of SureKill guide RNAs in the NFE2L2 gene for ability to induce indels; format: cell-based, Human; conditions: transfections of individual guide RNAs (spCas9 RNP); NCI-H1703 clone 44-25 cells; DECODR
Procedure: Human lung squamous cell carcinoma NCI-H1703 clone 44-25 cells were derived from NCI-H1703 cells (#CRL-5889) which were purchased from ATCC (Manassas, VA, USA). NCI-H1703 clone 44-25 cells contains R34G mutation (C 4 G) in NFE2L2 gene. H1703 clone 44-25 cells were cultured in ATCC formulation RPMI-1640 with 10% FBS. T75 flasks were used and cells were split 1:5 upon reaching 90% confluency. Human lung adenocarcinoma cells (Dist. Lot. No. LG0703-F948-PDC) were acquired from the National Institute of Health's National Cancer Institute's Patient-Derived Models Repository (PDMR). This PDMR cell line contains the L858R mutation (T 4 G) in the EGFR gene. The PDMR cells were maintained in Advanced DMEM/F12 media containing 10% FBS, 0.4 μg/mL hydrocortisone, 0.01 μg/mL EGF Recombinant Human Protein, 24 μg/mL adenine, and 2 mM L-Glutamine. T75s were used and cells were split 1:3 upon reaching 90% confluency. All cultures were maintained in cell culture incubators at 37° C. and 5% CO2.
Ribonucleoproteins (RNP) are complexed by incubating 250 pmol of purified synthetic gRNA (Synthego Corporation, Redwood City, CA) with 50 pmol of purified spCas9 (Synthego Corporation, Redwood City, CA) at room temperature in nuclease-free 1× TE buffer for 15 minutes.
Transfections were carried out using the Lonza Nuclefector 4d. Cultures in t75s at 90% confluence were split 1:2 24 hours prior to transfection. RNPs were complexed at 250:50 pmol for 30 minutes prior to transfection, during which time cells were harvested and counted. All reactions were 100 μL and contained 1 e6 cells. Lonza SF solution and Nucleofector program CM-130 were used in all transfections of the H1703 cell line. Lonza SE solution and Nucleofector program CA-137 were used in all transfections of the PDMR. After transfection, 500 μL of media that had been equilibrated to cell culture CO2 and temperature conditions was added to each 100 μL cuvettes. Cuvettes were then placed in the incubator. After 20 minutes, the entire content of each cuvette was seeded into 3 mL of media in a 6 well plate. After 72 hours, samples were dissociated using 200 μL Trypsin 0.25% for 5 minutes. 800 μL culture media was used to quench and split into 1.5 mL tubes each containing 500 μL of the sample. Tubes were spun at 300×g for 5 minutes. One of the tubes was placed in the −20° C. freezer and the other was resuspended in 500 μL of Trizol for RNA extraction and cDNA synthesis.
All sequencing was performed on the Applied Biosystems SeqStudio. The BigDye Terminator v3.1 Cycle Sequencing Kit was used to prepare samples for sequencing. Resulting sequences were analyzed with DECODR to determine indel rates (Bloh et al., CRISPR J. 4:120-31 (2021)).
In some cancers, human NRF2 contains a mutation, R34G, that creates a novel PAM site making it a targetable sequence by CRISPR. By combining the R34G-targeting CRISPR with another CRISPR of high efficiency in a downstream intronic region, exon skipping can be induced, resulting in a higher efficiency of functional knockout than the R34G targeting CRISPR alone. To find a suitable SureKill guide RNA (gRNA) to pair with the R34G targeting CRISPR, we selected the intron between exons 3 and 4 (FIG. 2). A series of gRNAs were created in this region and screened for their ability to induce indels, a measure of their activity (Table 2).
In Table 2, all sequences are listed from 5′ to 3′. Indel %, a measure of CRISPR activity, is based on transfections of individual guide RNAs. All guide RNAs, with the exception of R34G, were designed in the intron between exons 3 and 4.

EGFR gene = assay: Genomic DNA PCR assessment of large deletions in EGFR gene; format: cell-based, Human; conditions: gRNA alone, not paired
Procedure: After CRISPR reactions, genomic DNA was prepared for PCR amplification of the target region from EGFR gene. PCR-amplified DNA was then analyzed by electrophoresis through a 1% agarose gel for 75 minutes at 80v. DNA was stained with SYBR Safe. Lanes 1 and 10: NEB 2 Log Ladder; Lane 2: Scrambled gRNA; Lane 3: L858R gRNA alone; Lane 4: EGFR 21-22 SureKill gRNA 19 alone; Lane 5: EGFR 21-22 SureKill gRNA 27 alone; Lane 6: EGFR 21-22 SureKill gRNA 28+L858R gRNA; Lane 7: EGFR 21-22 SureKill gRNA 27+L858R gRNA; Lane 8: EGFR 21-22 SureKill gRNA 19+L858R gRNA; Lane 9: EGFR 21-22 SureKill gRNA 28 alone. On the left side of the image are markers indicating DNA size in bp. Expected dropout size of EGFR 21-22 SureKill gRNA 19+L858R gRNA: 316 bp. Expected dropout size of EGFR 21-22 SureKill gRNA 27+L858R gRNA: 417 bp. Expected dropout size of EGFR 21-22 SureKill gRNA 28+L858R gRNA: 463 bp. Dropout bands are indicated by asterisks.
Human lung squamous cell carcinoma NCI-H1703 clone 44-25 cells were derived from NCI-H1703 cells (#CRL-5889) which were purchased from ATCC (Manassas, VA, USA). NCI-H1703 clone 44-25 cells contains R34G mutation (C 4 G) in NFE2L2 gene. […]
Transfections were carried out using the Lonza Nuclefector 4d. […] RNPs were complexed at 250:50 pmol for 30 minutes prior to transfection, during which time cells were harvested and counted. […]

Row | Substance | indel % (NFE2L2 gene) [%] | large deletions (genomic DNA PCR) (EGFR gene)
1 | R34G gRNA: guide RNA GATATAGATCTTGGAGTAAG, SEQ ID NO:1, targets NRF2 R34G mutation (listed as DNA, chemistry not given here) | 83 | 
2 | L858R gRNA: guide RNA TCAAGATCACAGATTTTGGG, SEQ ID NO:8, targets EGFR L858R mutation (listed as DNA, chemistry not given here) |  | does not induce a large deletion
